Data set [1] is described as follows: Metabolic stability in human kidney brush border membranes (kBBM). The following applies: 1 mcM peptide, 50 mcg protein/mL, 37° C., pH 7.4, read-out: kBBM t½. It counts as in vitro ADME. As for the experimental part:
(§1) Brush border membranes from rat and human kidney tissue were prepared via centrifugation and stored at −70° C. Thawed stocks of rat or human kBBM were diluted to the appropriate concentration in 25 mM HEPES buffer (pH 7.4) containing 1% casein and aliquoted into a 96-well plate. The kBBM solutions were pre-warmed for 10 minutes at 37° C. Reactions were initiated by the addition of test peptide (1 mcM final concentration) also dissolved in 25 mM HEPES buffer (pH 7.4) containing 1% casein. The final concentration of kBBM in each incubation was 50 mcg protein/mL. Reactions were maintained at 37° C. in a shaking water bath. At 0, 0.25, 0.5, 1.0, 2.0, and 4.0 h post-initiation, 30 mcL of the reaction mixture was removed and placed into a 96-well plate containing 120 mcL of ice-cold methanol containing 2.5% formic acid. Quenched samples were centrifuged at 2178×g for 10 min and then a portion of the supernatants were transferred to a clean 96-well plate and diluted 1:1 with water.

The next data set deals with T1, rat GCGR (Rattus norvegicus, UniProt P30082).
T1 construct: A cDNA fragment encoding the full-length open reading frame of the rat GCGR; expressed in transfected cells; host or cells: CHO-K1, pcDNA3.1+, Lipofectamine 2000
In words: cAMP accumulation assay, CHO-K1 cells expressing rat GCGR. It counts as cell-based. From the text: In the presence of the non-specific cAMP/cGMP phosphodiesterase inhibitor, 3-isobutyl-1-methylxanthine (IBMX), accumulating cAMP can be measured in vitro using common detection methods. Thus, it is possible to estimate an in vitro potency (pEC50) for peptides activating each of these receptors using fit dose-response curves for cAMP accumulation.
A cDNA fragment encoding the full-length open reading frame of the cynomolgus monkey GLP-1R (Genebank accession #XM_028847603 was cloned into pcDNA3.1+ for expression in CHO-K1 cells. A cDNA fragment encoding the full-length open reading frame of the human GCGR (Genebank accession #NM_000160 was cloned into pcDNA3.1+ for expression in CHO-K1 cells. A cDNA fragment encoding the full-length open reading frame of the rat GCGR (Genebank accession #NM_12091 was cloned into pcDNA3.1+ for expression in CHO-K1 cells. A cDNA fragment encoding the full-length open reading frame of the cynomolgus monkey GCGR (Genebank accession #XM_005585255 was cloned into pcDNA3.1+ for expression in CHO-K1 cells. […]
Peptides were serially diluted 4-fold in assay buffer to final concentrations ranging from 1×10^−9 M to 9.5×10^−16 M. Two assay controls consisting of 50 mcM forskolin (cAMP system maximum) or assay buffer only (cAMP system minimum) were also prepared. […] Plates were read on an Envision fluorescent plate reader (PerkinElmer). […]
(Cyclic AMP is a second messenger, typically raised through Gs and lowered through Gi signalling.)

Another data set addresses serum albumin (Homo sapiens, UniProt P02768). In words: Fraction unbound (fu) in plasma by surface plasmon resonance, human. In kind it is in vitro ADME. The following applies: SPR binding to serum albumin. As for the experimental part: Conventional methods of measuring plasma protein binding, such as equilibrium dialysis, ultrafiltration and ultracentrifugation, are not reliable with peptides because of their tendency to adsorb to the surface of plastic tubing, dialysis membranes and molecular weight cut-off filters. As a result, the extent to which acylated peptides bind to serum albumin was evaluated using surface plasmon resonance (SPR).
A general note: SPR reads the build-up and loss of mass on a sensor chip optically.

Another data set addresses T2, hGIPR (Homo sapiens, UniProt P48546).
T2 sequence (P48546 22-466): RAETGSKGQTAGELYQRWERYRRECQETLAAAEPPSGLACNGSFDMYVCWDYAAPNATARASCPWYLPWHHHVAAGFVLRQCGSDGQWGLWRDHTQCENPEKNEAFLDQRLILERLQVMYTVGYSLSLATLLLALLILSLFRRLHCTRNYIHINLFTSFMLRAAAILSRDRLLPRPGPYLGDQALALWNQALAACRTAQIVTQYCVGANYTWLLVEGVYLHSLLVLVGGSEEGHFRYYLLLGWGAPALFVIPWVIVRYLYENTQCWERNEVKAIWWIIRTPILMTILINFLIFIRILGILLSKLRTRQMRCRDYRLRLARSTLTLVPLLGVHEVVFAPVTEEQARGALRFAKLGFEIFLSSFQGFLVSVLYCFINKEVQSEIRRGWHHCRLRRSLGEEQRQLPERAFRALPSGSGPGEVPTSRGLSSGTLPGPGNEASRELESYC
In words: cAMP accumulation assay, hGIPR. It counts as cell-based. As for the experimental part:
On day 1, CHO-K1 cells were plated at 1.5 million cells per T75 flask in 90% F12-K media supplemented with 10% FBS. On day 3 cells were transfected with 40 mcg of each expression plasmid using Lipofectamine 2000 transfection reagent. On day 5, cells were dispensed at 1000 cells per well in white 384-well OptiPlates in 5 mcL of assay buffer consisting of 1×HBSS, 5 mM HEPES, 0.5 mM IBMX, and 0.1% casein.
Peptides were serially diluted 4-fold in assay buffer to final concentrations ranging from 1×10^−9 M to 9.5×10^−16 M. Two assay controls consisting of 50 mcM forskolin (cAMP system maximum) or assay buffer only (cAMP system minimum) were also prepared. Five microliters of each peptide-concentration, or assay control, was added to triplicate wells and incubated for thirty minutes at room temperature. […] Plates were read on an Envision fluorescent plate reader (PerkinElmer).
Test values were first normalized to the system maximum and system minimum averaged values in Excel using the formula: (test value−system min average)/(system max average -system min average)*100. […] Data from up to 3 replicate tests were analyzed for each peptide. […]

Data set [2] in a line: Metabolic stability in rat kidney brush border membranes (kBBM). It counts as in vitro ADME. The following applies: 1 mcM peptide, 50 mcg protein/mL, 37° C., pH 7.4, read-out: kBBM t½ (converted). Here is the method:
as §1

*1 amine or outer side, *2 acyl side, *3 side chain or, on linkers, in order; H or OH if unused. Where a SMILES comes first, the peptide text is derived from it. Side-chain parts run from the residue outwards. [ ]: non-standard residue; d: D form. The star is where a group is joined. C20 diacid = O=C(O)CCCCCCCCCCCCCCCCCCC(=O)*; γGlu = O=C(O)[C@H](CCC(=O)[*:2])N[*:1]; AEEA = NCCOCCOCC(=O)O; Aib = CC(C)(N)C(=O)O

serum albumin, sequence (P02768 25-609): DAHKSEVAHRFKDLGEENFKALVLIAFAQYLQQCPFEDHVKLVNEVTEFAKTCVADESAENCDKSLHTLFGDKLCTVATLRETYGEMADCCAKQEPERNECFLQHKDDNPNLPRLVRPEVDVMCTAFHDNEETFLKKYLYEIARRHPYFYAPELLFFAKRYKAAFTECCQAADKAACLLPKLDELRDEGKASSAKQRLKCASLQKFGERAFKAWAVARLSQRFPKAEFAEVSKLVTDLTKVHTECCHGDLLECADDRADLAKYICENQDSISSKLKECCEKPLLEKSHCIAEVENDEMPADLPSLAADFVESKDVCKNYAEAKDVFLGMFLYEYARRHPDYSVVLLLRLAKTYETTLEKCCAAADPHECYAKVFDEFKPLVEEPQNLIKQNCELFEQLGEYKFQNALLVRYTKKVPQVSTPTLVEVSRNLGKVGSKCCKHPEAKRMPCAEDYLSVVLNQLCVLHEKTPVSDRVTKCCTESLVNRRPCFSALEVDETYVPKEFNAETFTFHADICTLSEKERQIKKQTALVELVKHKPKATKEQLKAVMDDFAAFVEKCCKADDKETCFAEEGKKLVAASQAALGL
T1 sequence (P30082 27-485): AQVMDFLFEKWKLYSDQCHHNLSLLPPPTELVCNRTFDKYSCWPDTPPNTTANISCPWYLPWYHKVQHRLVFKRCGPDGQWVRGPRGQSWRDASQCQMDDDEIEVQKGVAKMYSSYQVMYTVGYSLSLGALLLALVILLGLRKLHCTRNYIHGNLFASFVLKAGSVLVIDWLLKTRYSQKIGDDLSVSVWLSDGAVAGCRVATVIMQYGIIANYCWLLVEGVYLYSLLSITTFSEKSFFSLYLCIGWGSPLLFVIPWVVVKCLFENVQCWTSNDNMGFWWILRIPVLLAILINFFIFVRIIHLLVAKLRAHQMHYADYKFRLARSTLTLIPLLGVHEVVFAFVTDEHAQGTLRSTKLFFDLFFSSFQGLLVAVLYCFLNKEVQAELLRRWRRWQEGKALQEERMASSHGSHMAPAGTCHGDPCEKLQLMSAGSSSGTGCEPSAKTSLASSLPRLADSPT

Take `CC(C)C[C@H](NC(=O)[C@H](Cc1ccc(O)cc1)NC(=O)[C@H](CCCCN)NC(=O)[C@H](CO)NC(=O)[C@H](Cc1ccc(O)cc1)NC(=O)[C@H](CC(=O)O)NC(=O)[C@H](CO)NC(=O)[C@@H](NC(=O)[C@H](Cc1ccccc1)NC(=O)[C@@H](NC(=O)CNC(=O)[C@H](Cc1c[nH]cn1)NC(=O)[C@H](CO)NC(=O)[C@@H](N)Cc1ccc(O)cc1)[C@@H](C)O)[C@@H](C)O)C(=O)N[C@@H](CC(=O)O)C(=O)NC(C)(C)C(=O)N[C@@H](CCCCN)C(=O)N[C@@H](Cc1ccc(O)cc1)C(=O)N[C@@H](C)C(=O)N[C@@H](CCC(N)=O)C(=O)N[C@@H](CCCCNC(=O)CC[C@H](NC(=O)CC[C@H](NC(=O)COCCOCCNC(=O)CCCCCCCCCCCCCCCCCCC(=O)O)C(=O)O)C(=O)O)C(=O)N[C@@H](Cc1ccccc1)C(=O)N[C@H](C(=O)NC(C)(C)C(=O)N[C@@H](Cc1c[nH]c2ccccc12)C(=O)N[C@@H](CC(C)C)C(=O)N[C@@H](CCC(=O)O)C(=O)N[C@@H](CC(=O)O)C(=O)N[C@@H](CCC(=O)O)C(=O)N1CCC[C@H]1C(=O)N[C@@H](CO)C(=O)N[C@@H](CO)C(=O)NCC(=O)N[C@@H](C)C(=O)N1CCC[C@H]1C(=O)N1CCC[C@H]1C(=O)N1CCC[C@H]1C(=O)N[C@@H](CO)C(=O)O)C(C)C` [Compound A6] (H-YSHGTFTSDYSKYLD[Aib]KYAQK([γGlu-γGlu-AEEA-C20 diacid])FV[Aib]WLEDEPSSGAPPPS-OH; N-terminus assumed): the half-life at 1 mcM is over 3 days in data set [1] and 396 min in data set [2]. The EC50 is 0.0501 nM at rat GCGR and over 1 nM on hGIPR. The compound also yielded a fraction unbound on serum albumin of 0.0072.

What is called EC50 is the concentration needed to bring the measured effect to its halfway point. Broadly, the fraction unbound is free concentration divided by total concentration. A high value points to weak binding.

Source of the values: US20240228572A1 (i2o Therapeutics, Inc., priority 2020, published 2024).
